Patent US4910216A, “2-(3,5-dimethyl-4-hydroxyphenyl)indole derivatives” (Teikoku Hormone Mfg. Co., Ltd., priority 1988, dated 1990)

Columns and labels:
lipoxygenase [1] = assay: Inhibition of leukotriene formation (LTC4, LTD4, LTE4 in pleural exudate, HPLC) in A23187-induced pleurisy, oral administration; assay type: in vivo, rats (Wistar-strain, male); conditions: rat pleural exudate, 3 mg/kg p.o., 60 minutes before intrapleural A23187
Procedure: (1) Preparation of A23187 -induced pleurisy
Under ether anaesthesia, 0.2 ml of 100,μM […] (prepared by adding injectable distilled water in a 2mM A23187 ethanol solution) was administered intrapleurally to rats (Wistar-strain, male, 11 weeks old). Twenty minutes after the administration, the rats were exsanguinated and the pleural exudate was harvested. The test compound was suspended or dissolved in a 0.5% carboxymethyl cellulose solution containing 2% Tween, and orally administered to the animals 60 minutes before the intrapleural administration of A23187.
(2) Measurement of the leukotrienes [LTC4, LTD4 and LTE4 ]
To the exudate obtained in (1) was added 4 times its volume of ice-cooled ethanol. They were well mixed, and then centrifuged. The supernatant was concentrated under reduced pressure, and 1.0 ml of 0.01M acetate buffer (pH 5.9) was added to the residue. The solution was added to SEP-PAK® (C18) and leukotrienes were partially purified. Fractions eluted with 5 ml of 60% ethanol/0.01M acetate buffer (pH 5.9) were collected, and the solvent was evaporated under reduced pressure.
The residue was dissolved in 1 ml of methanol, and the solution was filtered on a filter having a pore size of 0.45 microns, and evaporated under reduced pressure. The residue was dissolved in the mobile phase (acetonitrile/water/acetic acid/triethylamine, 35/63.5/1.5/2.2) used in high performance liquid chromatography (HPLC) and subjected to analysis by HPLC. A calibration curve was obtained by a fixed amount of PGB2 as an internal standard substance and standard LTC4, LTD4 and LTE4 were added to a buffer, followed by the same extraction, partial purification and HPLC analysis as above. The amounts of the leukotrienes in the sample were calculated from the calibration curve.
The activity of 2-(4-hydroxy-3,5-dimethylphenyl)-5-methoxy-3-methylindole (compound A) which is disclosed in Example 1 of U.S. Pat. No. 4,695,381 and was selected as an active control is also shown below.

cyclooxygenase = conditions: known inhibitors; cited from earlier work
lipoxygenase [2] = conditions: known inhibitors; cited from earlier work

Compound | percent inhibition of LTC4 + LTD4 + LTE4 (lipoxygenase [1]) [%] | LTC4 + LTD4 + LTE4 (lipoxygenase [1]; mean ± S.E.M., vehicle 414.82 ± 49.81 ng) [ng] | cyclooxygenase inhibition (lack of specificity) (cyclooxygenase) | lipoxygenase inhibition (lipoxygenase [2])
COc1ccc2[nH]c(-c3cc(C)c(OC(=O)CCC(=O)O)c(C)c3)c(C)c2c1 [Example 1] | 53.4 | 193.30 ± 28.37 | – | –
NC1=NN(c2cccc(C(F)(F)F)c2)CC1 [BW755C, 3-amino-1-(3-trifluoromethylphenyl)-2-pyrazoline] | – | – | lack specificity and inhibit not only lipoxygenase but also cyclooxygenase | inhibit not only lipoxygenase
COc1ccc2[nH]c(-c3cc(C)c(O)c(C)c3)c(C)c2c1 [Compound A, 2-(4-hydroxy-3,5-dimethylphenyl)-5-methoxy-3-methylindole] | 32.0 | – | – | –
CCCCCC#CCC#CCC#CCC#CCCCC(=O)O [5,8,11,14-eicosatetraynoic acid] | – | – | lack specificity and inhibit not only lipoxygenase but also cyclooxygenase | inhibit not only lipoxygenase
